In patent US6734184B1, “Arylpiperazines and their use as metalloproteinase inhibiting agents (MMP)” (AstraZeneca AB, priority 1998, dated 2004):

SMILES | melting point
O=CN(O)C(CCc1cccnc1)CS(=O)(=O)N1CCC(Oc2ccc(Cl)cn2)CC1 (stereo not drawn) [Example 14, N-{1-[({4-[(5-Chloropyridin-2-yl)oxy]piperidino}sulfonyl)methyl]-3-pyridin-3-ylpropyl}-N-hydroxyformamide] | 130 to 140 °C
O=CN(O)C(CCc1ccccc1)CS(=O)(=O)N1CCN(c2cc(Cl)ncn2)CC1 (stereo not drawn) [N-[1-({[4-(6-chloropyrimidin-4-yl)piperazino]sulphonyl}methyl)-3-phenylpropyl]-N-hydroxyformamide] | 155 to 157 °C
O=CN(O)C(COCc1ccccc1)CS(=O)(=O)N1CCN(c2cc(Cl)ncn2)CC1 (stereo not drawn) [N-[2-(benyloxy)-1-({[4(6-chloropyrimidin-4-yl)piperazino]sulphonyl}methyl)ethyl]-N-hydroxyformamide] | 118 to 120 °C
